The target in the experiment is human GLP1R (Homo sapiens (Human), UniProt P43220). The experiment is described as follows: In vitro cAMP signal activation in human GLP1R stably-expressing cell line (hGLP1R-HEK293). It counts as cell-based. As to conditions: cAMP concentration in hGLP1R-HEK293; 100% = 1 nM human GLP-1 (7-37).
human GLP1R, sequence (P43220 24-463): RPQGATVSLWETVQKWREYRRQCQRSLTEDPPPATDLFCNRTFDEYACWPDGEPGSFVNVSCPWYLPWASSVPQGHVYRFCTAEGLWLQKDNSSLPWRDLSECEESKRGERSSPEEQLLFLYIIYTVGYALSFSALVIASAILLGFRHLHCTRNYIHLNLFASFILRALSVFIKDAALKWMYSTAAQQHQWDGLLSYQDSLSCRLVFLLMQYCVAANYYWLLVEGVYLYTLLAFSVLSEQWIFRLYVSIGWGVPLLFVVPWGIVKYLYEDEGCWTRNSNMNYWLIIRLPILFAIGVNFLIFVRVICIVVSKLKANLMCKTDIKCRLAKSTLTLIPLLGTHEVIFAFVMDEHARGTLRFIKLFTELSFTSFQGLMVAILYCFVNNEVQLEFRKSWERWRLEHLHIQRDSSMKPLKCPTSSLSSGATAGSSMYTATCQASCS
With `Cc1cc(-n2nc3c(c2-n2ccn(-c4ccc5c(cnn5C)c4)c2=O)CN(C(=O)c2cc4cc(C5CCOC6(CCCC6)C5)ccc4n2[C@@]2(c4noc(=O)[nH]4)C[C@@H]2C)CC3)cc(C)c1F` (stereo partly drawn) [compound 75, 3-[(1S,2S)-1-[2-[2-(4-fluoro-3,5-dimethylphenyl)-3-[3-(1-methylindazol-5-yl)-2-oxoimidazol-1-yl]-6,7-dihydro-4H-pyrazolo[4,3-c]pyridine-5-carbonyl]-5-(6-oxaspiro[4.5]decan-9-yl)indol-1-yl]-2-methylcyclopropyl]-4H-1,2,4-oxadiazol-5-one], the concentration giving a half-maximal response (EC50) (commonly the midpoint of the concentration-response curve) is 6.2 nM. This lies in the single-digit nanomolar range.

`COCCn1ncc2c(F)c(-n3ccn(-c4c5c(nn4-c4ccc(F)c(C)c4)CCN(C(=O)c4cc6cc([C@H]7CCOC(C)(C)C7)ccc6n4[C@@]4(c6noc(=O)[nH]6)C[C@@H]4C)[C@H]5C)c3=O)ccc21` [Example 48, 3-[(1S,2S)-1-[5-[(4S)-2,2-dimethyloxan-4-yl]-2-[(4S)-3-[3-[4-fluoro-1-(2-methoxyethyl)indazol-5-yl]-2-oxoimidazol-1-yl]-2-(4-fluoro-3-methylphenyl)-4-methyl-6,7-dihydro-4H-pyrazolo[4,3-c]pyridine-5-carbonyl]indol-1-yl]-2-methylcyclopropyl]-4H-1,2,4-oxadiazol-5-one] showed an EC50 of 3 nM.

For the compound `CC[C@H]1C[C@@H](c2ccc3c(c2)cc(C(=O)N2CCc4nn(-c5cc(C)c(F)c(C)c5)c(-n5ccn(-c6ccc7c(cnn7C)c6)c5=O)c4C2)n3[C@@]2(c3noc(=O)[nH]3)C[C@@H]2C)CCO1` [compound 77], the EC50 is 1.4 nM.

Take `Cc1cc(-n2nc3c(c2-n2ccn(-c4ccc5c(cnn5CC(F)(F)F)c4F)c2=O)[C@H](C)N(C(=O)c2cc4cc(C5CCOCC5)ccc4n2[C@@]2(c4noc(=O)[nH]4)C[C@@H]2C)CC3)cc(C)c1Cl` [Example 44, 3-[(1S,2S)-1-[2-[(4S)-2-(4-chloro-3,5-dimethylphenyl)-3-[3-[4-fluoro-1-(2,2,2-trifluoroethyl)indazol-5-yl]-2-oxoimidazol-1-yl]-4-methyl-6,7-dihydro-4H-pyrazolo[4,3-c]pyridine-5-carbonyl]-5-(oxan-4-yl)indol-1-yl]-2-methylcyclopropyl]-4H-1,2,4-oxadiazol-5-one]: the EC50 is 1.5 nM. Take `COCCn1ncc2c(F)c(-n3ccn(-c4c5c(nn4-c4cc(C)c(F)c(C)c4)CCN(C(=O)c4cc6cc([C@H]7CCOC(C)(C)C7)ccc6n4[C@@]4(c6noc(=O)[nH]6)C[C@@H]4C)[C@H]5C)c3=O)ccc21` [Example 36, 3-[(1S,2S)-1-[5-[(4S)-2,2-dimethyloxan-4-yl]-2-[(4S)-2-(4-fluoro-3,5-dimethylphenyl)-3-[3-[4-fluoro-1-(2-methoxyethyl)indazol-5-yl]-2-oxoimidazol-1-yl]-4-methyl-6,7-dihydro-4H-pyrazolo[4,3-c]pyridine-5-carbonyl]indol-1-yl]-2-methylcyclopropyl]-4H-1,2,4-oxadiazol-5-one]: the EC50 was determined as 2.1 nM.

Regarding `COCCn1ncc2cc(-n3ccn(-c4c5c(nn4-c4cc(C)c(F)c(C)c4)CCN(C(=O)c4cc6cc([C@H]7CCOC(C)(C)C7)ccc6n4[C@@]4(c6noc(=O)[nH]6)C[C@@H]4C)[C@H]5C)c3=O)ccc21` [Example 31, 3-[(1S,2S)-1-[5-[(4S)-2,2-dimethyloxan-4-yl]-2-[(4S)-2-(4-fluoro-3,5-dimethylphenyl)-3-[3-[1-(2-methoxyethyl)indazol-5-yl]-2-oxoimidazol-1-yl]-4-methyl-6,7-dihydro-4H-pyrazolo[4,3-c]pyridine-5-carbonyl]indol-1-yl]-2-methylcyclopropyl]-4H-1,2,4-oxadiazol-5-one], the EC50 was 0.74 nM. As for `Cc1cc(-n2nc3c(c2-n2ccn(-c4ccc5c(cnn5C)c4)c2=O)CN(C(=O)c2cc4cc(C5CCOCC5)ccc4n2[C@@]2(c4noc(=O)[nH]4)C[C@@H]2CO)CC3)cc(C)c1F` [compound 79, 3-[(1S,2S)-1-[2-[2-(4-fluoro-3,5-dimethylphenyl)-3-[3-(1-methylindazol-5-yl)-2-oxoimidazol-1-yl]-6,7-dihydro-4H-pyrazolo[4,3-c]pyridine-5-carbonyl]-5-(oxan-4-yl)indol-1-yl]-2-(hydroxymethyl)cyclopropyl]-4H-1,2,4-oxadiazol-5-one], the figure is 2.4 nM. `Cc1cc(-n2nc3c(c2-n2ccn(-c4ccc5c(cnn5C)c4F)c2=O)[C@H](C)N(C(=O)c2cc4cc([C@H]5CCOC(C)(C)C5)ccc4n2[C@@]2(c4noc(=O)[nH]4)C[C@@H]2C)CC3)cc(C)c1Cl` [compound 65, 3-[(1S,2S)-1-[2-[(4S)-2-(4-chloro-3,5-dimethylphenyl)-3-[3-(4-fluoro-1-methylindazol-5-yl)-2-oxoimidazol-1-yl]-4-methyl-6,7-dihydro-4H-pyrazolo[4,3-c]pyridine-5-carbonyl]-5-[(4S)-2,2-dimethyloxan-4-yl]indol-1-yl]-2-methylcyclopropyl]-4H-1,2,4-oxadiazol-5-one] gave an EC50 of 3.5 nM. In turn, `Cc1cc(-n2nc3c(c2-n2ccn(-c4ccc5c(cnn5C)c4)c2=O)[C@H](C)N(C(=O)c2cc4cc([C@H]5CCO[C@@H](C)C5)ccc4n2[C@@]2(c4noc(=O)[nH]4)C[C@@H]2C)CC3)cc(C)c1F` [compound 61, 3-[(1S,2S)-1-[2-[(4S)-2-(4-fluoro-3,5-dimethylphenyl)-4-methyl-3-[3-(1-methylindazol-5-yl)-2-oxoimidazol-1-yl]-6,7-dihydro-4H-pyrazolo[4,3-c]pyridine-5-carbonyl]-5-[(2S,4S)-2-methyloxan-4 yl]indol-1-yl]-2-methylcyclopropyl]-4H-1,2,4-oxadiazol-5-one] displayed an EC50 of 1.6 nM. Turning to `COCCn1ncc2c(F)c(-n3ccn(-c4c5c(nn4-c4cc(C)c(Cl)c(C)c4)CCN(C(=O)c4cc6cc(C7CCOCC7)ccc6n4[C@@]4(c6noc(=O)[nH]6)C[C@@H]4C)[C@H]5C)c3=O)ccc21` [Example 45, 3-[(1S,2S)-1-[2-[(4S)-2-(4-chloro-3,5-dimethylphenyl)-3-[3-[4-fluoro-1-(2-methoxyethyl)indazol-5-yl]-2-oxoimidazol-1-yl]-4-methyl-6,7-dihydro-4H-pyrazolo[4,3-c]pyridine-5-carbonyl]-5-(oxan-4-yl)indol-1-yl]-2-methylcyclopropyl]-4H-1,2,4-oxadiazol-5-one], the midpoint of the response, the EC50, lay at 1.6 nM. `Cc1cc(-n2nc3c(c2-n2ccn(-c4ccc5[nH]ncc5c4)c2=O)[C@H](C)N(C(=O)c2cc4cc(C5CCOC(C)(C)C5)ccc4n2[C@@]2(c4noc(=O)[nH]4)C[C@@H]2C)CC3)cc(C)c1F` (stereo in doubt) [Example 34, 3-[(1S,2S)-1-[5-[(4S)-2,2-dimethyloxan-4-yl]-2-[(4S)-2-(4-fluoro-3,5-dimethylphenyl)-3-[3-(1H-indazol-5-yl)-2-oxoimidazol-1-yl]-4-methyl-6,7-dihydro-4H-pyrazolo[4,3-c]pyridine-5-carbonyl]indol-1-yl]-2-methylcyclopropyl]-4H-1,2,4-oxadiazol-5-one] returned an EC50 of 3 nM.

`COCCn1ncc2cc(-n3ccn(-c4c5c(nn4-c4cc(C)c(F)c(C)c4)CCN(C(=O)c4cc6cc([C@H]7CCOC(C)(C)C7)ccc6n4[C@@]4(c6noc(=O)[nH]6)C[C@@H]4C)[C@H]5C)c3=O)c(F)cc21` [compound 71, 3-[(1S,2S)-1-[5-[(4S)-2,2-dimethyloxan-4-yl]-2-[(4S)-2-(4-fluoro-3,5-dimethylphenyl)-3-[3-[6-fluoro-1-(2-methoxyethyl)indazol-5-yl]-2-oxoimidazol-1-yl]-4-methyl-6,7-dihydro-4H-pyrazolo[4,3-c]pyridine-5-carbonyl]indol-1-yl]-2-methylcyclopropyl]-4H-1,2,4-oxadiazol-5-one]: a half-maximal response (EC50) required 1.3 nM. As for `Cc1cc(C)cc(-n2nc3c(c2-n2ccn(-c4ccc5c(cnn5C)c4)c2=O)CN(C(=O)c2cc4cc(C5CCOC(C)(C)C5)ccc4n2[C@@]2(c4noc(=O)[nH]4)C[C@@H]2C)CC3)c1` (stereo partly shown) [compound 60], the figure is 4.9 nM; as for `COCCn1c(=O)n(C)c2cc(-n3ccn(-c4c5c(nn4-c4cc(C)c(F)c(C)c4)CCN(C(=O)c4cc6cc(C7CCOC(C)(C)C7)ccc6n4[C@@]4(c6noc(=O)[nH]6)C[C@@H]4C)[C@H]5C)c3=O)ccc21` (stereo in doubt) [Example 33, 3-[(1S,2S)-1-[5-[(4S)-2,2-dimethyloxan-4-yl]-2-[(4S)-2-(4-fluoro-3,5-dimethylphenyl)-3-[3-[1-(2-methoxyethyl)-3-methyl-2-oxobenzoimidazol-5-yl]-2-oxoimidazol-1-yl]-4-methyl-6,7-dihydro-4H-pyrazolo[4,3-c]pyridine-5-carbonyl]indol-1-yl]-2-methylcyclopropyl]-4H-1,2,4-oxadiazol-5-one], 1.6 nM. As for `COCCn1ncc2cc(-n3ccn(-c4c5c(nn4-c4cc(C)c(F)c(C)c4)CCN(C(=O)c4cc6cc(C7CCOC(C)(C)C7)ccc6n4[C@@]4(c6noc(=O)[nH]6)C[C@@H]4C)C5)c3=O)ccc21` (stereo partly drawn) [compound 76, 3-[(1S,2S)-1-[5-(2,2-dimethyloxan-4-yl)-2-[2-(4-fluoro-3,5-dimethylphenyl)-3-[3-[1-(2-methoxyethyl)indazol-5-yl]-2-oxoimidazol-1-yl]-6,7-dihydro-4H-pyrazolo[4,3-c]pyridine-5-carbonyl]indol-1-yl]-2-methylcyclopropyl]-4H-1,2,4-oxadiazol-5-one], the figure is 2.4 nM; as for `COCCn1ncc2cc(-n3ccn(-c4c5c(nn4-c4cc(C)c(F)c(C)c4)CCN(C(=O)c4cc6cc(C7CCOCC7)cnc6n4[C@@]4(c6noc(=O)[nH]6)C[C@@H]4C)C5)c3=O)ccc21` [compound 56, 3-[(1S,2S)-1-[2-[2-(4-fluoro-3,5-dimethylphenyl)-3-[3-[1-(2-methoxyethyl)indazol-5-yl]-2-oxoimidazol-1-yl]-6,7-dihydro-4H-pyrazolo[4,3-c]pyridine-5-carbonyl]-5-(oxan-4-yl)pyrrolo[2,3-b]pyridin-1-yl]-2-methylcyclopropyl]-4H-1,2,4-oxadiazol-5-one], 3.4 nM.

(Values after US10858356B2, “Pyrazolopyridine derivative having GLP-1 receptor agonist effect” (Chugai Seiyaku Kabushiki Kaisha, priority 2016, dated 2020).)
